Measured values: patent US8329686B2, “Isatin analogues and uses therefor” (Washington University, priority 2006, dated 2012)
Read-outs that look alike come from different tables or passages of the source. Residues, ends and D or L forms follow the SMILES beside them.

Key:
Type in all cases: biochemical
[1] = molecular target: T1, caspase 1 (Homo sapiens, UniProt P29466); assay: Enzyme inhibition assay, caspase 1 (fluorogenic Ac-YVAD-AMC)
T1 construct: purchased BIOMOL Research Laboratories (Plymouth Meeting, Pa.)
T1 sequence (P29466 120-297 limits assumed): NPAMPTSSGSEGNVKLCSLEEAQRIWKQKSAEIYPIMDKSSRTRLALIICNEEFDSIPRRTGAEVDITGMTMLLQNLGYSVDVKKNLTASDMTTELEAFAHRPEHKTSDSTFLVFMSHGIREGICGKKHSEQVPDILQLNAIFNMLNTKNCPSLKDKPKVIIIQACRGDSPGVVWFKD
T1 sequence (P29466 317-404 limits assumed): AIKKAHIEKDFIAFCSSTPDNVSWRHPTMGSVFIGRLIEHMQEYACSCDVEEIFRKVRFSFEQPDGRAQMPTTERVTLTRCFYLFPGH

[2] = molecular target: T2, caspase-3 (Homo sapiens, UniProt P42574); assay: Enzyme inhibition assay, caspase 3 (fluorogenic Ac-DEVD-AMC)
T2 construct: purchased Sigma-Aldrich (St. Louis, Mo.)
T2 sequence (P42574 29-175 limits assumed): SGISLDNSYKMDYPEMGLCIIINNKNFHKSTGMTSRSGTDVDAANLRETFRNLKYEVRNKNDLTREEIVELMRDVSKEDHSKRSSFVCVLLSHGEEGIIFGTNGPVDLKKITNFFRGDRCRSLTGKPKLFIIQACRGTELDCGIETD
T2 sequence (P42574 176-277 limits assumed): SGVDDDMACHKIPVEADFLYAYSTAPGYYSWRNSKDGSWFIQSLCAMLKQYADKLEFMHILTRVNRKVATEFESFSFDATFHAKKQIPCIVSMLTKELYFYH

[3] = molecular target: T3, caspase 6 (Homo sapiens, UniProt P55212); assay: Enzyme inhibition assay, caspase 6 (fluorogenic Ac-VEID-AMC)
T3 construct: purchased Sigma-Aldrich (St. Louis, Mo.)
T3 sequence (P55212 24-179 limits assumed): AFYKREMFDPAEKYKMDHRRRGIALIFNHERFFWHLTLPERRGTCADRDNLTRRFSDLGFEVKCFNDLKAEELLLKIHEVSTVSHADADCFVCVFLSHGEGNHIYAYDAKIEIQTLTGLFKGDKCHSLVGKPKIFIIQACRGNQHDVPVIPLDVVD
T3 sequence (P55212 194-293 limits assumed): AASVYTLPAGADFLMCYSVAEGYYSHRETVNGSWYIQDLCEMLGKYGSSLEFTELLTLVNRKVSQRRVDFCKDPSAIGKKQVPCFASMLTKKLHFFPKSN

[4] = molecular target: T4, caspase 8 (Homo sapiens, UniProt Q14790); assay: Enzyme inhibition assay, caspase 8 (fluorogenic Ac-IETD-AMC)
T4 construct: purchased Sigma-Aldrich (St. Louis, Mo.)

[5] = molecular target: T5, caspase 7 (Homo sapiens, UniProt P55210); assay: Enzyme inhibition assay, caspase 7 (fluorogenic Ac-DEVD-AMC)
T5 construct: purchased Sigma-Aldrich (St. Louis, Mo.)
T5 sequence (P55210 24-198 limits assumed): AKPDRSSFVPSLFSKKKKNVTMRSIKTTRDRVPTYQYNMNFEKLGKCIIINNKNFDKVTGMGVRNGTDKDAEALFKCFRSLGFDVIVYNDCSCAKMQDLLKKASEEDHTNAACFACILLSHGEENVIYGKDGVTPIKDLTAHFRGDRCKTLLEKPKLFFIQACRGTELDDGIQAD
T5 sequence (P55210 207-303 limits assumed): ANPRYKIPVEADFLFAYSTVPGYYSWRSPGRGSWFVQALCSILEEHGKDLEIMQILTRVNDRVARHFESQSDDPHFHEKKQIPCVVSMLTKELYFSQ
Protocol: Enzyme Assays. Inhibition of recombinant human caspase-3 and other caspases by the isatin analogues was assessed using a fluorometric assay by measuring the accumulation of a fluorogenic product, 7-amino-4-methylcoumarin (7-AMC).
Enzyme Inhibition Assays. Recombinant human caspases (3, 6, 7, and 8) and their peptide-specific substrates (Ac-DEVDAMC, Ac-VEID-AMC, Ac-DEVD-AMC, and Ac-IETD-AMC, respectively) were purchased from Sigma-Aldrich (St. Louis, Mo.) with the exception of caspase 1 and its substrate (Ac-YVAD-AMC), which were obtained from BIOMOL Research Laboratories (Plymouth Meeting, Pa.). The enzymatic activity of caspases was determined by measuring the accumulation of the fluorogenic product 7-amino-4-methylcoumarin (AMC). All assays were prepared in 96-well format at a volume of 210 μL per well and consisted of 100 mM Na+ HEPES (pH 7.4), 10% sucrose, 100 mM NaCl, 0.1% CHAPS, 5 mM 2-mercaptoethanol, 2 mM EDTA, 10 μM Ac-YVAD-AMC (caspase 1); 20 mMNa^+ HEPES (pH 7.4), 10% sucrose, 100 mMNaCl, 0.1% CHAPS, 2 mM EDTA, 10 μM Ac-DEVD-AMC (caspase 3); 20 mM Na^+ HEPES (pH 7.4), 10% sucrose, 100 mM NaCl, 0.1% CHAPS, 2 mM EDTA, 10 μM Ac-VEID-AMC (caspase 6); 20 mM Na+ HEPES (pH 7.4), 100 mM NaCl, 10% sucrose, 0.1% CHAPS, 5 mM 2-mercaptoethanol, 2 mM EDTA, 10 μM Ac-DEVD-AMC (caspase 7); 20 mM Na+ HEPES (pH 7.4), 10% sucrose, 100 mM NaCl, 0.1% CHAPS, 2 mM EDTA, 10 μM Ac-IETD-AMC (caspase 8).
Recombinant caspases were first assayed to determine the optimal concentration for each experiment. Optimal concentrations were based in the linear range of the enzyme activation curves. Peptide inhibitors with known IC50 values were tested together with the compounds as a control for each caspase assay. […] Peptide and nonpeptide inhibitors were dissolved in DMSO, and a 2 serial dilution was performed prior to screening in order to obtain desired concentrations. 10 μL was added to each well containing 100 μL caspase solution and allowed to incubate on ice for 30 min. […] The final concentration of DMSO in all wells was 5% of the total volume. In caspase-1 and caspase-7 assays, 10 mM 2-mercaptoethanol was added to the substrate solution for full activation of the enzymes.
Compounds were tested in duplicate, and IC50 curves were calculated for all inhibitors assayed. Final IC50s were the average of three independent experiments.

[6] = Table 2, read-out: IC50 (nM) Caspase 1
[7] = Table 2, read-out: IC50 (nM) Caspase 3
[8] = Table 2, read-out: IC50 (nM) Caspase 6
[9] = Table 2, read-out: IC50 (nM) Caspase 8
[10] = Table 2, read-out: IC50 (nM) Caspase 7
[11] = Table 7, read-out: IC50 (nM) Casp-8
[12] = Table 6, read-out: IC50 (nM) caspase-1
[13] = Table 6, read-out: IC50 (nM) caspase-3
[14] = Table 6, read-out: IC50 (nM) caspase-6
[15] = Table 6, read-out: IC50 (nM) caspase-8
[16] = Table 6, read-out: IC50 (nM) caspase-7
[17] = Table 7, read-out: IC50 (nM) Casp-1
[18] = Table 1, read-out: IC50 (nM) Caspase 8

T4 sequence (Q14790 217-374 limits assumed): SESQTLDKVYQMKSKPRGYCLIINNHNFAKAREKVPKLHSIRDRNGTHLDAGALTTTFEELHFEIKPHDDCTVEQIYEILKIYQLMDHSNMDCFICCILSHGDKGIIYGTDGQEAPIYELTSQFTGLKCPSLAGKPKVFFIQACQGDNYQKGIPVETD
T4 sequence (Q14790 385-479 limits assumed): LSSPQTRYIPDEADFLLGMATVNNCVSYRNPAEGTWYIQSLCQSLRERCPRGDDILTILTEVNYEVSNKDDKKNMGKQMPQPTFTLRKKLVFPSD

## N#CC(C#N)=C1C(=O)N(Cc2ccc(OCCF)cc2)c2ccc(S(=O)(=O)N3CCC[C@H]3COc3cccnc3)cc21 [WC-II-103]
[1]; [6]
  IC50: 3500 nM
[2]; [7]
  IC50: 7.5 ± 0.2 nM
[3]; [8]
  IC50: 770 ± 119 nM
[4]; [9]
  IC50: > 50000 nM
[5]; [10]
  IC50: 26 ± 5.2 nM

## N#CC(C#N)=C1C(=O)N(Cc2ccccc2)c2ccc(S(=O)(=O)N3CCCC3COc3cccnc3)cc21 (stereo not drawn) [Compound 30a, 2-{1-Benzyl-2-oxo-5-[2-(pyridine-3-yloxymethyl)-pyrrolidine-1-sulfonyl]-1,2-dihydro-indol-3-yl-idene}-malononitrile]
[1]
  IC50: 3250 nM
[1]; IC50 (nM) Casp-1, Table 7
  IC50: 3250 ± 450 nM
[1]; read-out: IC50 for caspase-1
  IC50: 2700 to 3200 nM
[2]; IC50 (nM) Casp-3, Table 7
  IC50: 7.6 ± 1.1 nM
[2]; IC50 (nM) Caspase 3, Table 2
  IC50: 7.6 ± 1.1 nM
[2]; IC50 for caspase-3
  IC50: 7.6 nM
[3]
  IC50: 823 ± 86 nM
[3]; read-out: IC50 for caspase-6
  IC50: 515 to 770 nM
[4]; [9]
  IC50: > 50000 nM
[4]; [11]
  IC50: > 50000 nM
[4]; read-out: IC50 for caspase-8
  IC50: > 50000 nM
[5]; IC50 (nM) Casp-7, Table 7
  IC50: 32.8 ± 4.9 nM
[5]; IC50 (nM) Caspase 7, Table 2
  IC50: 32.8 ± 4.9 nM
[5]; IC50 for caspase-7
  IC50: 32.8 nM

## N#CC(C#N)=C1C(=O)N(Cc2ccc(OCCF)cc2)c2ccc(S(=O)(=O)N3CC[C@H]3COc3cccnc3)cc21 [WC-II-104]
[1]; [6]
  IC50: 2900 nM
[2]; [7]
  IC50: 7.1 ± 0.6 nM
[3]; [8]
  IC50: 580 ± 55 nM
[4]; [9]
  IC50: > 50000 nM
[5]; [10]
  IC50: 22.7 ± 3.1 nM

## O=C1C(=O)N(Cc2ccccc2)c2ccc(S(=O)(=O)N3CCCC3COc3cccnc3)cc21 (stereo not drawn) [Compound 21b, 1-Benzyl-5-(2-(pyridin-3-yl-oxymethyl)-pyrrolidine-1-sulfonyl)-1H-indole-2,3-dione]
[1]; [12]
  IC50: > 10000 nM
[2]; [13]
  IC50: 5.2 ± 1.6 nM
[3]; [14]
  IC50: > 5000 nM
[4]; [15]
  IC50: > 50000 nM
[5]; [16]
  IC50: 14.1 ± 3.4 nM

## O=C1C(=O)N(Cc2ccc(O)cc2)c2ccc(S(=O)(=O)N3CCC[C@H]3COc3ccccc3)cc21 [Compound 11f, (S)-1-(4-Hydroxybenzyl)-5-(2-phenoxymethyl-pyrrolidine-1-sulfonyl)-1H-indole-2,3-dione]
[2]; Table 4, read-out: IC50 (nM) caspase-3
  IC50: 13.5 ± 2.4 nM
[5]; Table 4, read-out: IC50 (nM) caspase-7
  IC50: 44 ± 0.1 nM

## O=C1C(=O)N(Cc2ccc(Br)cc2)c2ccc(S(=O)(=O)N3CCCC3COc3cccnc3)cc21 (stereo not drawn) [Compound 28c, 1-(4-Bromo-benzyl)-5-[2-(pyridin-3-yl-oxymethyl)-pyrrolidine-1-sulfonyl]-1H-indole-2,3-dione]
[1]; Table 1, read-out: IC50 (nM) Caspase 1
  IC50: > 15000 nM
[1]; [17]
  IC50: > 15000 nM
[2]; IC50 (nM) Casp-3, Table 7
  IC50: 3.6 ± 0.5 nM
[2]; IC50 (nM) Caspase 3, Table 1
  IC50: 3.6 ± 0.5 nM
[4]; [18]
  IC50: > 50000 nM
[4]; [11]
  IC50: > 50000 nM
[5]; IC50 (nM) Casp-7, Table 7
  IC50: 6.6 ± 0.1 nM
[5]; IC50 (nM) Caspase 7, Table 1
  IC50: 6.6 ± 0.1 nM

## CC[C@H](C)[C@H](NC(C)=O)C(=O)N[C@@H](CCC(=O)O)C(=O)N[C@H](C(=O)N[C@H](C=O)CC(=O)O)[C@@H](C)O [Ac-IETD-CHO, reference compound] (Ac-IETD-aldehyde)
[4]; [18]
  IC50: 4.7 ± 0.9 nM
[4]; [9]
  IC50: 4 ± 0.1 nM

## COc1ccc(CN2C(=O)C(=CC#N)c3cc(S(=O)(=O)N4CCC[C@H]4COc4ccccc4)ccc32)cc1 [WC-II-99]
[2]; [7]
  IC50: > 1000 nM
[2]; caspase-3/7
  potency as caspase-3/7 inhibitors (in words): low potency

## CSc1ccc(CN2C(=O)C(=O)c3cc(S(=O)(=O)N4CCCC4COc4cccnc4)ccc32)cc1 (stereo not drawn) [Compound 21d, 1-(4-Methylthiobenzyl)-5-(2-(pyridin-3-yl-oxymethyl)-pyrrolidine-1-sulfonyl)-1H-indole-2,3-dione]
[1]; [12]
  IC50: > 50000 nM
[2]; [13]
  IC50: 4.4 ± 1.4 nM
[3]; [14]
  IC50: > 5000 nM
[4]; [15]
  IC50: > 50000 nM
[5]; [16]
  IC50: 23.3 ± 0.7 nM

## N#CC(C#N)=C1C(=O)Nc2ccc(S(=O)(=O)N3CCCC3COc3ccccc3)cc21 (stereo not drawn) [Compound 26, 2-[2-Oxo-5-(2-phenoxymethyl-pyrrolidine-1-sulfonyl)-1,2-dihydro-indol-3-yl-idene]-malononitrile]
[1]; [6]
  IC50: 1830 nM
[1]; [17]
  IC50: 1830 ± 128 nM
[2]; [7]
  IC50: 272 ± 25 nM
[2]; Table 7, read-out: IC50 (nM) Casp-3
  IC50: 272 ± 24.7 nM
[2]; read-out: IC50 for caspase-3
  IC50: 272 nM
[3]; [8]
  IC50: 407 ± 15 nM
[3]; Table 7, read-out: IC50 (nM) Casp-6
  IC50: 407 ± 15 nM
[4]; [9]
  IC50: > 50000 nM
[4]; [11]
  IC50: > 50000 nM
[5]; [10]
  IC50: 1580 nM
[5]; Table 7, read-out: IC50 (nM) Casp-7
  IC50: 1580 ± 163 nM
[5]; read-out: IC50 for caspase-7
  IC50: 1580 nM
